Columns and labels:
Assay type in all cases: in vivo
[1] = test system: Anopheles gambiae; assay: Warm Body assay, mosquito landings on treated warm body
In short: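 Compounds in ethanol, 100 μL at various concentrations, applied to a sandblasted glass dish (28.3 cm^2) covering a warm body simulating a host. Mosquito landings counted per stimulus against an ethanol-only control to gauge repellence.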

[2] = test system: Aedes aegypti; assay: Double (dual) chamber assay, spatial repellence; conditions: after 30 min of injection
Description: FIG. 1: Percentage of mosquitoes Aedes aegypti escaping over time the chamber treated with a stimulus. The four stimuli were the solvent propan-1,2-diol (grey triangles and dotted line), N,N-diethyl-meta-toluamide (medium grey diamonds), 2,6-dimethoxy-4-methylphenol (light gray squares) and 1,2,3-trimethoxy-5-propylbenzene (black circles). Each stimulus was injected during 40 min thanks to a forced evaporation system in the treated chamber containing the mosquitoes, causing their movement toward the untreated refuge chamber. Each point represents the mean number of mosquitoes in the untreated chamber (n=57, 6, 4 and 4 respectively)±SD at 10 min intervals.
The goal of this assay was to reproduce at a smaller scale the validation test for spatial repellent as described in WHO (2013; ISBN 978 92 4 150502 4).
The assay consists of a transparent cage (1200×755×700 mm; ˜0.63 m^3) covered by white paper. This cage is divided in two chambers of equal dimensions by a plasticized paper wall with square opening (200×200 mm) situated in the middle of the wall. At the beginning of the experiment, about 40 two-weeks old female Aedes aegypti mosquitoes are placed in the right chambers. Once the mosquitoes are settled inside this chamber (>5 min), the door between the chambers is opened. Then the stimulus is introduced into the mosquito chamber through a L-shape Teflon tube (40 mm) placed in the middle of the right Plexiglas wall. The stimulus is dispensed thanks to a Forced Evaporation System (Chappuis et al, 2015, DOI: 10.1021/acs.est.5b00692) at a rate of 0.1 mL/min in a nitrogen flow of 1 L/min, blended in a humid air flow of 9L/min before being carried to the L-shape Teflon tube. An air sucking system (˜150 L/min) is placed above the wall opening, between the two chambers (100 mm Ø), preventing the untreated chamber from being contaminated by the stimulus and limiting the stimulus accumulation in the treated chamber. […] Ten, 20, 30 and 40 minutes after the start of the stimulus injection, the number of mosquitoes that have moved to the untreated chamber is manually counted.

[3] = test system: Aedes aegypti; assay: Arm-in-cage test on human volunteers; conditions: arm treated with 20%, three human volunteers
Description: The controlling effect, repellence & spatial repellence, according to the present invention is also determined according to an arm in the box method adapted from the WHO Guidelines for efficacy testing of mosquito repellents for human skin (WHO/CDS/NTD/WHOPES/2009.4). The readiness of 100 hungry female mosquitoes A. aegypti to a test substance is assessed by comparing the results of an untreated arm to a treated in when inserted into the cage (40×40×40 cm) for 30 seconds (negative control) three times. Further information is provided in the accompanying examples.
The Arm in the box method was adapted from the WHO Guidelines for efficacy testing of mosquito repellents for human skin (WHO/CDS/NTD/WHOPES/2009.4). The readiness of 100 hungry female mosquitoes A. aegypti to probe is assessed by inserting the untreated arm of human volunteers into the cage (40×40×40cm) for 30 seconds (negative control) in order to determine probing activity. Then, the product is applied onto the skin of the forearm of the human volunteer (1 mL per 600 cm^2) and after 5 minutes, this arm is inserted into the cage and exposed for 3 minutes. The assay take place in temperature (27±2° C.) and humidity (80±10% RH) regulated room on three different human volunteers.

[4] = test system: Aedes aegypti; assay: Free flying room assay, spatial repellence with human volunteer
Text: The goal of this large-scale test is to assess the propensity of stimulus released in the air to protect a human volunteer by limiting the mosquito presence in a protected space and the number of landing/biting. The protocol used to carry the test is following the guidelines indicated in WHO (2013; ISBN 978 92 4 150502 4).
A group of 50 Aedes aegypti female mosquitoes were introduced in one chamber of 25 m^3 one hour before the test started. The product was applied in the other chamber of 25 m^3 (“treated chamber”) and let evaporate for 30 minutes. The test started when the window separating the two chambers was opened in a tilt-on manner for another 30 minutes. Twenty minutes after the window was opened, a volunteer entered in the “treated chamber” and sat down for 10 minutes, exposing the forearm for the last 3 minutes to determine the probing activity (Protective Efficacy). Then, the connecting window was closed and the number of mosquitoes in each of the chambers was counted (Spatial Repellency). The negative controls were carried out following the same procedure but without the application of the stimulus. Three replicates of each treatment and of the negative control were conducted with three different volunteers.

Compound: CCCc1cc(OC)c(OC)c(OC)c1 [compound 1975, 1,2,3-trimethoxy-5-propylbenzene]
- pest or weed control at 3.2 µg/mL ([1]; Anopheles gambiae, 0.0032 mg/mL (Table 5), read-out: Percentage of repellence of mosquitoes Anopheles gambiae landing on the warm body): 0%
- pest or weed control at 7.1 µg/mL ([1]; Anopheles gambiae, 0.0071 mg/mL (Table 5), read-out: Percentage of repellence of mosquitoes Anopheles gambiae landing on the warm body): 5%
- pest or weed control at 16 µg/mL ([1]; Anopheles gambiae, 0.016 mg/mL (Table 5), read-out: Percentage of repellence of mosquitoes Anopheles gambiae landing on the warm body): 78%
- pest or weed control at 53 µg/mL ([1]; Anopheles gambiae, 0.053 mg/mL (Table 5), read-out: Percentage of repellence of mosquitoes Anopheles gambiae landing on the warm body): 23%
- pest or weed control at 80 µg/mL ([1]; Anopheles gambiae, 0.08 mg/mL (Table 5), read-out: Percentage of repellence of mosquitoes Anopheles gambiae landing on the warm body): 0%
- pest or weed control at 400 µg/mL ([1]; Anopheles gambiae, 0.4 mg/mL (Table 5), read-out: Percentage of repellence of mosquitoes Anopheles gambiae landing on the warm body): 94%
- pest or weed control at 2000 µg/mL ([1]; Anopheles gambiae, 2 mg/mL (Table 5), read-out: Percentage of repellence of mosquitoes Anopheles gambiae landing on the warm body): 95%
- pest or weed control at 4470 µg/mL ([1]; Anopheles gambiae, 4.47 mg/mL (Table 5), read-out: Percentage of repellence of mosquitoes Anopheles gambiae landing on the warm body): 100%
- pest or weed control at 10000 µg/mL ([1]; Anopheles gambiae, 10 mg/mL (Table 5), read-out: Percentage of repellence of mosquitoes Anopheles gambiae landing on the warm body): 98%
- repulsion ([1]; all doses ≥0.04% applied on the Warm Body (Table 5)): > 90%
- plateau of mosquitoes moved to the untreated chamber [2]: ~54%
- reduction of the number of mosquito Aedes aegypti landings [3]: 99.4%±0.4%
- mosquitoes landed on the volunteer ([4]; in 3 minutes, negative control 60.7±2.5 landings): 15.7±3.1
- Spatial Repellence ([4]; large scale assay, 25 m3 chambers, compound released in the air): 43.9 ± 9.1%
- Protective efficacy ([4]; large scale assay, probing on volunteer forearm, 3 minutes): 74.2 ± 4.4%
- mosquito entered the treated chamber ([4]; negative control 82.5±3.7%): 46.3±7.5%
